Laboratory results from ChEMBL document CHEMBL1201862, “PubChem BioAssay data set” (2004).
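48-hour exposure; five concentrations; linearly interpolated endpoints. At the GI50, growth is halved.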 Activity calls are given as the source filed them. Rule as the data show it: active = GI50 up to about 1.1 µM and inactive = higher.

How the values were obtained:
Assay in all cases: inhibition of tumour cell growth, NCI panel, 48 h
NCI-H226 = test system: NCI-H226
OVCAR-4 = test system: OVCAR-4
UACC-257 = test system: UACC-257
SF-268 = test system: SF-268
BT-549 = test system: BT-549
HL-60 = test system: HL-60
COLO 205 = test system: COLO 205
MDA-MB-231 = test system: MDA-MB-231
HT-29 = test system: HT-29
NCI-H522 = test system: NCI-H522
SF-295 = test system: SF-295
HCT-116 = test system: HCT-116
KM12 = test system: KM12
MOLT-4 = test system: MOLT-4
CCRF-CEM = test system: CCRF-CEM
OVCAR-8 = test system: OVCAR-8
SNB-19 = test system: SNB-19
LOX IMVI = test system: LOX IMVI
786-0 = test system: 786-0
UACC-62 = test system: UACC-62
HCC 2998 = test system: HCC 2998
Hs-578T = test system: Hs-578T
IGROV-1 = test system: IGROV-1
UO-31 = test system: UO-31
CAKI-1 = test system: CAKI-1
SF-539 = test system: SF-539
M14 = test system: M14
K562 = test system: K562
NCI-H23 = test system: NCI-H23
SK-MEL-5 = test system: SK-MEL-5
NCI-H460 = test system: NCI-H460
SK-OV-3 = test system: SK-OV-3
NCI/ADR-RES = test system: NCI/ADR-RES
MCF7 = test system: MCF7
RXF 393 = test system: RXF 393
SK-MEL-28 = test system: SK-MEL-28
EKVX = test system: EKVX
Malme-3M = test system: Malme-3M
U-251 = test system: U-251
SN12C = test system: SN12C
PC-3 = test system: PC-3
HCT-15 = test system: HCT-15
SW-620 = test system: SW-620
ACHN = test system: ACHN
SK-MEL-2 = test system: SK-MEL-2
HOP-62 = test system: HOP-62
DU-145 = test system: DU-145
A549 = test system: A549
OVCAR-5 = test system: OVCAR-5
T47D = test system: T47D
TK-10 = test system: TK-10
MDA-N = test system: MDA-N
SNB-75 = test system: SNB-75
SR = test system: SR
RPMI-8226 = test system: RPMI-8226
HOP-92 = test system: HOP-92
OVCAR-3 = test system: OVCAR-3
MDA-MB-435 = test system: MDA-MB-435
A498 = test system: A498

CC1(C)CC(O)C(C)(C)[C@@H](O)C1 (some centres undefined)
GI50 (NCI-H226): > 100 µM (inactive)
GI50 (OVCAR-4): > 100 µM (inactive)
GI50 (UACC-257): > 100 µM (inactive)
GI50 (SF-268): > 100 µM (inactive)
GI50 (BT-549): > 100 µM (inactive)
GI50 (HL-60): > 100 µM (inactive)
GI50 (COLO 205): > 100 µM (inactive)
GI50 (MDA-MB-231): > 100 µM (inactive)
GI50 (HT-29): > 100 µM (inactive)
GI50 (NCI-H522): > 100 µM (inactive)
GI50 (SF-295): > 100 µM (inactive)
GI50 (HCT-116): > 100 µM (inactive)
GI50 (KM12): > 100 µM (inactive)
GI50 (MOLT-4): > 100 µM (inactive)
GI50 (CCRF-CEM): > 100 µM (inactive)
GI50 (OVCAR-8): > 100 µM (inactive)
GI50 (SNB-19): > 100 µM (inactive)
GI50 (LOX IMVI): > 100 µM (inactive)
GI50 (786-0): > 100 µM (inactive)
GI50 (UACC-62): > 100 µM (inactive)
GI50 (HCC 2998): > 100 µM (inactive)
GI50 (Hs-578T): > 100 µM (inactive)
GI50 (IGROV-1): > 100 µM (inactive)
GI50 (UO-31): > 100 µM (inactive)
GI50 (CAKI-1): > 100 µM (inactive)
GI50 (SF-539): > 100 µM (inactive)
GI50 (M14): > 100 µM (inactive)
GI50 (K562): > 100 µM (inactive)
GI50 (NCI-H23): > 100 µM (inactive)
GI50 (SK-MEL-5): > 100 µM (inactive)
GI50 (NCI-H460): > 100 µM (inactive)
GI50 (SK-OV-3): > 100 µM (inactive)
GI50 (NCI/ADR-RES): > 100 µM (inactive)
GI50 (MCF7): > 100 µM (inactive)
GI50 (RXF 393): 28.7 µM (inactive)
GI50 (SK-MEL-28): > 100 µM (inactive)
GI50 (EKVX): > 100 µM (inactive)
GI50 (Malme-3M): > 100 µM (inactive)
GI50 (U-251): > 100 µM (inactive)
GI50 (SN12C): > 100 µM (inactive)
GI50 (PC-3): > 100 µM (inactive)
GI50 (HCT-15): > 100 µM
GI50 (SW-620): > 100 µM (inactive)
GI50 (ACHN): > 100 µM (inactive)
GI50 (SK-MEL-2): > 100 µM (inactive)
GI50 (HOP-62): > 100 µM (inactive)
GI50 (DU-145): > 100 µM (inactive)
GI50 (A549): > 100 µM (inactive)
GI50 (OVCAR-5): > 100 µM (inactive)
GI50 (T47D): > 100 µM (inactive)
GI50 (TK-10): > 100 µM (inactive)
GI50 (MDA-N): > 100 µM (inactive)
GI50 (SNB-75): > 100 µM (inactive)

CCC/N=C1\S/C(=C/c2ccc(OC)c(OC)c2)C(=O)N1c1ccccc1
GI50 (NCI-H226): 41.8 µM (inactive)
GI50 (OVCAR-4): 16 µM (inactive)
GI50 (SR): 51.8 µM (inactive)
GI50 (UACC-257): 76.7 µM (inactive)
GI50 (SF-268): 15.1 µM (inactive)
GI50 (BT-549): 74.8 µM (inactive)
GI50 (HL-60): 59.8 µM (inactive)
GI50 (COLO 205): > 100 µM (inactive)
GI50 (MDA-MB-231): 20.6 µM (inactive)
GI50 (HT-29): > 100 µM (inactive)
GI50 (NCI-H522): 40.6 µM (inactive)
GI50 (SF-295): 11.3 µM (inactive)
GI50 (HCT-116): 24 µM (inactive)
GI50 (KM12): > 100 µM (inactive)
GI50 (MOLT-4): 33.9 µM (inactive)
GI50 (CCRF-CEM): 58.7 µM (inactive)
GI50 (OVCAR-8): 82.2 µM (inactive)
GI50 (SNB-19): 17.8 µM (inactive)
GI50 (LOX IMVI): > 100 µM (inactive)
GI50 (786-0): 13.1 µM (inactive)
GI50 (UACC-62): 37 µM (inactive)
GI50 (HCC 2998): > 100 µM (inactive)
GI50 (Hs-578T): 9.1 µM (inactive)
GI50 (IGROV-1): 80.2 µM (inactive)
GI50 (UO-31): 32.5 µM (inactive)
GI50 (CAKI-1): 44.5 µM (inactive)
GI50 (SF-539): 7.91 µM (inactive)
GI50 (M14): > 100 µM (inactive)
GI50 (RPMI-8226): 43.2 µM (inactive)
GI50 (K562): > 100 µM (inactive)
GI50 (NCI-H23): 76.7 µM (inactive)
GI50 (SK-MEL-5): 37.6 µM (inactive)
GI50 (HOP-92): 33.1 µM (inactive)
GI50 (NCI-H460): 61 µM (inactive)
GI50 (SK-OV-3): 11.2 µM (inactive)
GI50 (NCI/ADR-RES): 93.1 µM (inactive)
GI50 (MCF7): > 100 µM (inactive)
GI50 (SK-MEL-28): > 100 µM (inactive)
GI50 (EKVX): 15.8 µM (inactive)
GI50 (Malme-3M): > 100 µM (inactive)
GI50 (U-251): 12.6 µM (inactive)
GI50 (SN12C): 54.8 µM (inactive)
GI50 (OVCAR-3): 12.6 µM (inactive)
GI50 (PC-3): 43.8 µM (inactive)
GI50 (HCT-15): > 100 µM
GI50 (SW-620): > 100 µM (inactive)
GI50 (ACHN): 42.8 µM (inactive)
GI50 (SK-MEL-2): 31.8 µM (inactive)
GI50 (HOP-62): 2.84 µM (inactive)
GI50 (A549): 42.1 µM (inactive)
GI50 (OVCAR-5): 44.9 µM (inactive)
GI50 (T47D): > 100 µM (inactive)
GI50 (MDA-MB-435): > 100 µM (inactive)
GI50 (TK-10): 22.8 µM (inactive)
GI50 (MDA-N): > 100 µM (inactive)
GI50 (A498): 21.5 µM (inactive)

c1cncc(CNCCN2CCNCC2)c1
GI50 (NCI-H226): > 100 µM (inactive)
GI50 (OVCAR-4): > 100 µM (inactive)
GI50 (SR): > 100 µM (inactive)
GI50 (UACC-257): > 100 µM (inactive)
GI50 (SF-268): > 100 µM (inactive)
GI50 (BT-549): > 100 µM (inactive)
GI50 (COLO 205): > 100 µM (inactive)
GI50 (MDA-MB-231): > 100 µM (inactive)
GI50 (HT-29): > 100 µM (inactive)
GI50 (NCI-H522): > 100 µM (inactive)
GI50 (SF-295): > 100 µM (inactive)
GI50 (HCT-116): > 100 µM (inactive)
GI50 (KM12): > 100 µM (inactive)
GI50 (MOLT-4): > 100 µM (inactive)
GI50 (OVCAR-8): > 100 µM (inactive)
GI50 (SNB-19): > 100 µM (inactive)
GI50 (LOX IMVI): > 100 µM (inactive)
GI50 (786-0): > 100 µM (inactive)
GI50 (UACC-62): > 100 µM (inactive)
GI50 (Hs-578T): > 100 µM (inactive)
GI50 (IGROV-1): > 100 µM (inactive)
GI50 (UO-31): > 100 µM (inactive)
GI50 (CAKI-1): > 100 µM (inactive)
GI50 (SF-539): > 100 µM (inactive)
GI50 (M14): > 100 µM (inactive)
GI50 (RPMI-8226): > 100 µM (inactive)
GI50 (K562): > 100 µM (inactive)
GI50 (NCI-H23): > 100 µM (inactive)
GI50 (SK-MEL-5): > 100 µM (inactive)
GI50 (HOP-92): > 100 µM (inactive)
GI50 (NCI-H460): > 100 µM (inactive)
GI50 (SK-OV-3): > 100 µM (inactive)
GI50 (NCI/ADR-RES): > 100 µM (inactive)
GI50 (MCF7): > 100 µM (inactive)
GI50 (RXF 393): > 100 µM (inactive)
GI50 (SK-MEL-28): > 100 µM (inactive)
GI50 (EKVX): > 100 µM (inactive)
GI50 (Malme-3M): > 100 µM (inactive)
GI50 (U-251): > 100 µM (inactive)
GI50 (SN12C): > 100 µM (inactive)
GI50 (OVCAR-3): > 100 µM (inactive)
GI50 (PC-3): > 100 µM (inactive)
GI50 (HCT-15): > 100 µM
GI50 (SW-620): > 100 µM (inactive)
GI50 (ACHN): > 100 µM (inactive)
GI50 (SK-MEL-2): > 100 µM (inactive)
GI50 (HOP-62): > 100 µM (inactive)
GI50 (A549): > 100 µM (inactive)
GI50 (OVCAR-5): > 100 µM (inactive)
GI50 (T47D): > 100 µM (inactive)
GI50 (MDA-MB-435): > 100 µM (inactive)
GI50 (TK-10): > 100 µM (inactive)
GI50 (MDA-N): > 100 µM (inactive)
GI50 (A498): > 100 µM (inactive)
GI50 (SNB-75): > 100 µM (inactive)
